Source: US10881060B2, “Endophytes and related methods” (Agriculture Victoria Services PTY LTD, priority 2010, dated 2021)

System: N. lolii (strain ST) mycelia
Assay: Colchicine kill curve of endophyte mycelia
Type: cell-based
Settings: grown 21 days
Procedure: Experiments were conducted to determine the range of colchicine concentrations in which the mycelia of the fungal endophyte N. lolii (strain ST) would grow successfully. Mycelia were grown in colchicine concentrations ranging from 0% to 1% for 21 days and monitored for growth (FIG. 15). At greater than or equal to 0.2% colchicine mycelium growth halted whereas at 0.1% or less colchicine mycelium growth was prolific.

With COc1cc2c(c(OC)c1OC)-c1ccc(OC)c(=O)cc1[C@@H](NC(C)=O)CC2 [colchicine] the “Colchicine concentration at which mycelium growth halted” value was “greater than or equal to 0.2%” and the “Colchicine concentration at which mycelium growth was prolific” value was at most 0.1%.
